# In patent publication US8501992B2, “Hydroxyphenyl sulfonamides as antiapoptotic bcl inhibitors” (Bristol-Myers Squibb Company, priority 2008, dated 2013):
# Key:
# Assay type in all cases: binding
# Bcl-b = molecular target: T1, Bcl-b (Homo sapiens, UniProt Q9HD36); assay: Bclb/Bim fluorescence polarization assay (FPA); conditions: BIM BH3 peptide 5 nM, Bcl-b 40 nM, Ki calculated from FPA data
# T1 construct: without their C-terminal transmembrane domain; GST; made in house
# T1 sequence (Q9HD36 1-182 limits assumed): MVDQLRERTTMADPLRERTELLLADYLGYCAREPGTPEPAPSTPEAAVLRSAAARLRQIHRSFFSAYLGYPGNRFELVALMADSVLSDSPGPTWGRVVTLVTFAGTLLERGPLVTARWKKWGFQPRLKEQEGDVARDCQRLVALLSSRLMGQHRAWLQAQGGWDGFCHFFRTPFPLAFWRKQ
# Excerpt: (§1) Compounds were profiled for their ability to disrupt in vitro binding interactions in fluorescence polarization assays (FPAs) using synthetic fluorochrome-labeled Bcl homology 3 (BH3) peptides derived from BIM [(FAM)-Ahx-[…]-NH2 (SEQ ID NO: 1) (GenBank Accession No. O43521)] or BAK [Ac-GQVGRQLAIIGE-LYS(FAM)-INR-NH2 (SEQ ID NO:2) (GenBank Accession No. Q16611) amino acid sequences and four bacterial recombinant proteins [Bcl-b (GenBank Accession No. Q9HD36), Bcl-2 (GenBank Accession No. P10415), Bcl-Xl (GenBank Accession No. Q07817), Mcl-1 (GenBank Accession No. Q07820)] without their C-terminal transmembrane domain. Proteins were purified from bacterial lysates using their glutathione S-transferase (GST)-tag (Bcl-b, Bcl-2, Mcl-1) or His6-tag (Bcl-Xl) and following one-step affinity chromatography procedures. Dissociation constants (Kd) for peptide binding protein were determined by fluorescence polarization in FPAs measuring BIM BH3 peptide binding Bcl-b, Mcl-1 or Bcl-2 protein or BAK BH3 peptide binding Bcl-Xl protein. The Kd values were generated by fitting the experimental data using a sigmoidal dose-response nonlinear regression model.
# (§2) Compound inhibitory concentration values, IC50 (50% reduction in fluorescence polarization), were determined using fluorochrome-labeled BH3 peptides and recombinant Bcl proteins in fluorescence polarization assays (FPAs). Compounds diluted in DMSO (0.5 ul) were transferred (in duplicate) to individual wells of a 384-well plate. The fluorochrome-labeled peptide was added followed by recombinant protein addition. Each binding FPA reaction (50 ul) contained BIM BH3 peptide (5 nM) or BAK BH3 peptide (1.5 nM) and Bcl-b (40 nM), Mcl-1 (28 nM), Bcl-2 (11 nM) or Bcl-Xl. (5 nM) protein suspended in assay buffer [20 mM sodium phosphate, pH 7.4, 1 mM EDTA, 50 mM NaCl., 0.05% Pluronic F68]. Reaction mixtures were incubated at ambient temperature for 60 minutes prior to measuring polarization (mP) using an Analyst (LJL, Molecular Devices, Sunnyvale, Calif.) programmed to detect an emission wavelength of 530 nm after excitation (excitation wavelength=485 nm).
# (§3) Competitive compound inhibition constants (Ki) were calculated using FPA experimental data and a mathematical equation, Ki=[I]50/([L]50/Kd+[P]0/Kd+1), where [I]50 denotes free inhibitor concentration at 50% inhibition, [L]50 is free labeled ligand concentration at 50% inhibition, [P]0 is free protein concentration at 0% inhibition, and Kd is the dissociation constant of the protein-ligand complex.
# Mcl-1 = molecular target: T2, Mcl-1 (Homo sapiens, UniProt Q07820); assay: Mcl-1/Bim fluorescence polarization assay (FPA); conditions: BIM BH3 peptide 5 nM, Mcl-1 28 nM, Ki calculated from FPA data
# T2 construct: without their C-terminal transmembrane domain; GST; made in house
# Excerpt: as §1, §2, §3
# Bcl-2 = molecular target: T3, Bcl-2 (Homo sapiens, UniProt P10415); assay: Bcl2/Bim fluorescence polarization assay (FPA); conditions: BIM BH3 peptide 5 nM, Bcl-2 11 nM, Ki calculated from FPA data
# T3 construct: without their C-terminal transmembrane domain; GST; made in house
# Excerpt: as §1, §2, §3
# T2 sequence (Q07820 1-327 limits assumed): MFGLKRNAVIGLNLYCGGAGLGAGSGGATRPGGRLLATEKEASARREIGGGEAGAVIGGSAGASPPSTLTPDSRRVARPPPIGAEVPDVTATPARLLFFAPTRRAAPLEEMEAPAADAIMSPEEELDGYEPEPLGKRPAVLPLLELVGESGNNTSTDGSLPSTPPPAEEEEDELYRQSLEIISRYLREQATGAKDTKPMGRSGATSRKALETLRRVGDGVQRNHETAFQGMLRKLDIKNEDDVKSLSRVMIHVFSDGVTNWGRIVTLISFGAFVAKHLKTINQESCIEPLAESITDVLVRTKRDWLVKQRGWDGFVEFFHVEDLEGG
# T3 sequence (P10415 1-211 limits assumed): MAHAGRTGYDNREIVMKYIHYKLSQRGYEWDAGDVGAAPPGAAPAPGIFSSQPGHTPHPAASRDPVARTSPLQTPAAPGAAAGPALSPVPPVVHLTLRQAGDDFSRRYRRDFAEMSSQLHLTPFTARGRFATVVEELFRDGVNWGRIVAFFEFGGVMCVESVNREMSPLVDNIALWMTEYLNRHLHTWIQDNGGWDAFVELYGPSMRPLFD
Compound,Ki (Bcl-b) [nM],Ki (Mcl-1) [nM],Ki (Bcl-2) [nM]
"CC(C)CN(Cc1cc(Cl)cc(CN(CC(C)C)S(=O)(=O)c2cc(Cl)cc(Cl)c2O)c1)C(=O)c1ccc(SC(F)(F)F)cc1 [Example 71, N-(3-chloro-5-((3,5-dichloro-2-hydroxy-N-isobutylphenylsulfonamido)methyl)benzyl)-N-isobutyl-4-(trifluoromethylthio)benzamide]",247,970,469
"O=C(NCc1cccc(CN(Cc2ccc(F)cc2)S(=O)(=O)c2cc(Cl)cc(Cl)c2O)c1)c1cc(O)nc(O)c1 [Example 2, N-(3-((3,5-Dichloro-N-(4-fluorobenzyl)-2-hydroxyphenylsulfonamido)methyl)benzyl)-2,6-dihydroxyisonicotinamide]",50,20,20

# The remaining lines, values ahead:
Ki (Bcl-b) [nM],Ki (Mcl-1) [nM],Ki (Bcl-2) [nM],Compound
182,1150,349,"CC(C)CN(Cc1cc(Cl)cc(CN(CC(C)C)S(=O)(=O)c2cc(Cl)cc(Cl)c2O)c1)C(=O)c1cccc(SC(F)(F)F)c1 [Example 72, N-(3-chloro-5-((3,5-dichloro-2-hydroxy-N-isobutylphenylsulfonamido)methyl)benzyl)-N-isobutyl-3-(trifluoromethylthio)benzamide]"
110,470,120,"COc1c(CN(Cc2ccc(F)cc2)S(=O)(=O)c2cc(Cl)cc(Cl)c2O)cccc1-c1ccc(Cl)cc1 [Example 240, 3,5-Dichloro-N-((4′-chloro-2-methoxybiphenyl-3-yl)methyl)-N-(4-fluorobenzyl)-2-hydroxybenzenesulfonamide]"
300,1680,720,"Cc1cccc(CN(Cc2ccc(F)cc2)S(=O)(=O)c2cc(Cl)cc(Cl)c2O)c1 [Example 266, 3,5-Dichloro-N-(4-fluorobenzyl)-2-hydroxy-N-(3-methylbenzyl)benzenesulfonamide]"
280,60,60,"N#Cc1ccc(S(=O)(=O)NCc2cccc(CN(Cc3ccc(-c4ccccc4)cc3)S(=O)(=O)c3cc(Cl)cc(Cl)c3O)c2)cc1 [Example 4, N-(Biphenyl-4-ylmethyl)-3,5-dichloro-N-(3-((4-cyanophenylsulfonamido)methyl)benzyl)-2-hydroxybenzenesulfonamide]"
